Data on 104 molecules can be found in ChEMBL document CHEMBL3507680, “University of Dundee, Gates Library screen for HepG2 cell viability”.

This data set can be described thus: Human HepG2 cell viability assay in 384 well format. Type of data set: toxicity, cell-based. More on the design: dose 125 nL, time 70.5 hour; concentration not given beside the values. The settings on record: HepG2 cells, read-out: Inhibition.
Consider `CC(C)OC(=O)CC(NC(=O)CCn1cccn1)c1ccccc1` (centres undefined), for which the cytotoxicity at 70.5 h is 5.59%.

Take `CSC1(CNC(=O)N(C)Cc2ccc(C)s2)CCOCC1`: the cytotoxicity at 70.5 h stood at 15.5%.

Take `CC(NCc1nnc2n1CCCC2)c1nc(Cc2ccccc2)no1` (centres undefined): the cytotoxicity at 70.5 h is -8.89%.

On to `CN(C)C(CNC(=O)OCC(F)(F)F)c1ccsc1` (centres undefined), for which the cytotoxicity at 70.5 h was -8.54%.

With `CN(Cc1ccsc1)C(=O)c1nc(N2CCCCC2)ncc1Cl`, the cytotoxicity at 70.5 h is -14.3%.

With `Cc1noc(C)c1CN(C)C(=O)c1nc(N2CCCC2)ncc1Cl`, the cytotoxicity at 70.5 h is -11.7%.

In the case of `CS(=O)(=O)NC1CCN(Cc2coc(-c3ccccc3)n2)CC1`, the cytotoxicity at 70.5 h is -9.14%.

Consider `CCN1CCC(NC(=O)N(C)Cc2csc3ccccc23)CC1`, for which the cytotoxicity at 70.5 h is -8.41%.

For `O=C(Nc1ccc(F)cc1F)NC1(CO)CCOCC1`, the cytotoxicity at 70.5 h was -4.4%.

On to `c1cnn(C2CN(c3nc(-c4ccncc4)nc4c3CCC4)C2)c1`, for which the cytotoxicity at 70.5 h is -1.27%.

On to `CS(=O)(=O)c1ccccc1NC(=O)N[C@@H]1c2ccccc2C[C@@H]1O`, for which the cytotoxicity at 70.5 h is 12.9%.

`CCC(C)c1csc(NC(=O)Cc2csc(-c3nnc[nH]3)n2)n1` (centres undefined): the cytotoxicity at 70.5 h amounted to 9.25%.

For `CC(C)Oc1ccccc1CNC(=O)N(C)CC(F)F`, the cytotoxicity at 70.5 h was -3.01%.

For `CN(C)C(CNC(=O)CCNC(=O)OCC(F)(F)F)c1ccsc1` (centres undefined), the cytotoxicity at 70.5 h was -0.647%.

Take `CC(NCc1nnc2n1CCCC2)c1nc(C(C)(C)C)no1` (centres undefined): the cytotoxicity at 70.5 h is -13.6%.

For the molecule `CSC1(CNC(=O)NCc2sccc2C)CCOCC1`, the cytotoxicity at 70.5 h was 2.45%.

As to `CNC(=O)CCOC(=O)c1cccc(-n2ccc(C(F)(F)F)n2)c1`, the cytotoxicity at 70.5 h came to 0.427%.

For `O=C(c1cc(C2CC2)nc2onc(-c3ccccc3)c12)N1CCOCC1`, the cytotoxicity at 70.5 h was 18.5%.

Regarding `COc1cc(Cl)ccc1CNC(=O)N(C)C(C)CS(C)(=O)=O` (centres undefined), the cytotoxicity at 70.5 h was -7.57%.

With `CCCC(=O)NC1CCCN(c2cncc(Br)c2)C1` (centres undefined), the cytotoxicity at 70.5 h was -10.5%.

As to `CS(=O)(=O)c1ccccc1N[C@@H]1c2ccccc2C[C@@H]1O`, the cytotoxicity at 70.5 h was determined as 21.1%.

`Cc1nn2cccnc2c1C(=O)NCc1ccccc1OC1CCC1`: the cytotoxicity at 70.5 h was -4.01%.

Regarding `c1cc(NCc2ccsc2)cc(-c2nnc[nH]2)c1`, the cytotoxicity at 70.5 h was found to be 1.3%.

In the case of `Oc1c(F)cc(CNc2cccc(-c3nnc[nH]3)c2)cc1F`, the cytotoxicity at 70.5 h is -9.32%.

Take `COC(=O)C(NC(=O)c1ccc(C)cc1C)c1cccnc1` (centres undefined): the cytotoxicity at 70.5 h is -7.04%.

`Cn1c(N)nnc1SCc1c(F)cccc1Br`: the cytotoxicity at 70.5 h is -3.61%.

Regarding `Cn1c(CO)nnc1SCc1c(F)cccc1Br`, the cytotoxicity at 70.5 h is -5.69%.

As for `Cc1nn2cccnc2c1C(=O)NCc1ccnc(OCC2CC2)c1`, the cytotoxicity at 70.5 h is -12.1%.

On to `Cc1noc(CCNC(=O)C2CSCN2C(=O)C2CCCC2)n1` (centres undefined), for which the cytotoxicity at 70.5 h was -5.54%.

With `CC1CCN(c2ccc(C(=O)N3CCCC3c3nncn3C)cn2)CC1` (centres undefined), the cytotoxicity at 70.5 h is 8.02%.

For `CC(C)(C)NC(=O)c1cccc(CN2CCS(=O)(=O)CC2)c1`, the cytotoxicity at 70.5 h is -4.97%.

On to `CC(C)c1noc(OCC(=O)N(C)C(C)C)n1`, for which the cytotoxicity at 70.5 h is -12.3%.

As to `CCN(CC)C(=O)COc1nc(C(C)C)no1`, the cytotoxicity at 70.5 h was found to be 18.3%.

On to `Cc1nc(CN2CCCN(C(=O)CC(C)n3cccc3)CC2)cs1` (centres undefined), for which the cytotoxicity at 70.5 h was -12.7%.

Turning to `O=S(=O)(CCN1CCCCC1Cn1cccn1)c1ccccc1` (centres undefined), the cytotoxicity at 70.5 h was -28.3%.

On to `Cc1cc(C(=O)N(CC2CCCO2)c2ccncc2)c(C)o1` (centres undefined), for which the cytotoxicity at 70.5 h is -9.47%.

As to `Cc1nn(CC(C)C)c(C)c1CC(=O)N1CCCC(CNS(C)(=O)=O)C1` (centres undefined), the cytotoxicity at 70.5 h is -13.2%.

With `CC(=O)N(C)C1CCN(C(=O)NCCc2cc(F)ccc2F)CC1`, the cytotoxicity at 70.5 h is -13.7%.

For the molecule `N#Cc1cccnc1N1CCC(OCCc2ccccc2)CC1`, the cytotoxicity at 70.5 h was -9.51%.

In the case of `Fc1cccnc1N1CCCC(c2nccs2)C1` (centres undefined), the cytotoxicity at 70.5 h is -5.3%.

Turning to `CN(Cc1cnn(C)c1)S(=O)(=O)N1CCCCCC1`, the cytotoxicity at 70.5 h was -9.53%.

Consider `CN(Cc1cnn(C)c1)S(=O)(=O)N1CCc2ccccc2C1`, for which the cytotoxicity at 70.5 h is 7.8%.

Take `CC(=O)NCCC(=O)NCCCOc1c(C)cccc1C`: the cytotoxicity at 70.5 h was -6.31%.

Regarding `Cc1occc1C(=O)NCC(=O)NCCOc1cccc(Cl)c1`, the cytotoxicity at 70.5 h was -11.3%.

In the case of `COC1CCN(C(=O)c2csc(-c3ccccc3F)n2)CC1`, the cytotoxicity at 70.5 h is -4.85%.

Consider `NC(=O)C1CCN(CC(=O)NCCc2c(F)cccc2F)CC1`, for which the cytotoxicity at 70.5 h was -7.99%.

For the molecule `Cc1cc(N2CCc3c(ncn3C)C2)nc(N)n1`, the cytotoxicity at 70.5 h was -0.513%.

For the molecule `COc1ccccc1CN1CCN(CCN2CCOC2=O)CC1`, the cytotoxicity at 70.5 h came out at 8.76%.

For `CCc1nc(CCNC(=O)NC2CCSCC2)cs1`, the cytotoxicity at 70.5 h was found to be 5.18%.

As for `CC(NC(=O)Nc1ccc(S(C)(=O)=O)cc1)c1ccc2c(c1)CC(=O)N2` (centres undefined), the cytotoxicity at 70.5 h was -7.73%.

Consider `CS(=O)(=O)NC1CCN(C(=O)c2ccc3ccccc3c2)C1` (centres undefined), for which the cytotoxicity at 70.5 h worked out at 5.82%.

As to `NC(=O)N1CCCN(CC(=O)NCCc2c(F)cccc2F)CC1`, the cytotoxicity at 70.5 h is -6.21%.

As for `O=C(NCC1(O)CCSC1)c1ccoc1` (centres undefined), the cytotoxicity at 70.5 h is -5.15%.

As to `Cc1ccc(C(=O)NCc2ccccc2S(=O)(=O)N(C)CCO)cc1F`, the cytotoxicity at 70.5 h was -1.52%.

In the case of `O=C(CCc1cccs1)NCC1CCCN1c1cccnn1` (centres undefined), the cytotoxicity at 70.5 h stood at 3.16%.

`Cc1nsc(N2CCCN(C(=O)NCc3cccnc3)CC2)n1`: the cytotoxicity at 70.5 h was -0.506%.

In the case of `O=C(NCc1nncn1C1CC1)Nc1ccc(OC2CCC2)c(F)c1`, the cytotoxicity at 70.5 h is -1.51%.

With `CCN1CCCC1CNC(=O)CCc1cccs1` (centres undefined), the cytotoxicity at 70.5 h is -3.71%.

For the molecule `O=C(c1ccc2nccn2c1)N1CCCC1c1noc(C2CC2)n1` (centres undefined), the cytotoxicity at 70.5 h was -5.7%.

As for `CC(C)(C)NC(=O)CN1CCCN(Cc2ccc(C#N)cc2)CC1`, the cytotoxicity at 70.5 h was -6.11%.

On to `Cc1cc(C)c(CCNC(=O)CN2CCCN(C(N)=O)CC2)c(C)c1`, for which the cytotoxicity at 70.5 h turned out to be 15.4%.

For `N#CCCN(Cc1ccco1)C(=O)c1ccc(OCC2CC2)cc1`, the cytotoxicity at 70.5 h was -4.89%.

In the case of `CC(C)C(C)(C#N)NC(=O)CN1CCCN(Cc2ccccc2F)CC1` (centres undefined), the cytotoxicity at 70.5 h is -3.81%.

Take `CCn1cnnc1C1CCN(C(=O)CC(C)n2cccc2)CC1` (centres undefined): the cytotoxicity at 70.5 h was -1.21%.

In the case of `Cc1ccccc1-n1cnnc1SCC(=O)NCC1CCCO1` (centres undefined), the cytotoxicity at 70.5 h was -8.74%.

With `CCC(C)NC(=O)c1ccc(CNC(=O)CC(C)(C)C)cc1` (centres undefined), the cytotoxicity at 70.5 h was -9.82%.

Regarding `CCC(C)NC(=O)c1cccc(CNC(=O)CC(F)(F)F)c1` (centres undefined), the cytotoxicity at 70.5 h was -6.23%.

Turning to `Cc1ccc(C(=O)NCCNC(=O)c2cncnc2C)cc1F`, the cytotoxicity at 70.5 h was -11.3%.

For `CCCNC(=O)CNc1cc(C(=O)NCC(F)(F)F)cc(F)c1C`, the cytotoxicity at 70.5 h is -6.37%.

With `COc1ccc(C(=O)NCCNC(=O)c2cncnc2C)cc1`, the cytotoxicity at 70.5 h is -8.47%.

Turning to `N#Cc1ccc(N2CCCC2Cn2cccn2)nc1` (centres undefined), the cytotoxicity at 70.5 h was -8.46%.

Turning to `CCNC(=O)NCc1ccccc1NS(=O)(=O)c1ccccc1`, the cytotoxicity at 70.5 h is -10.5%.

`CCc1nccn1C1CCCN(C(=O)c2ccn(C)c(=O)c2)C1` (centres undefined): the cytotoxicity at 70.5 h was -0.0555%.

For `CCNC(=O)NCc1cccc(N2CC=CC2)c1`, the cytotoxicity at 70.5 h was 1.58%.

On to `CCNC(=O)NC(C)(C)C(=O)NCc1cccc(N2CC=CC2)c1`, for which the cytotoxicity at 70.5 h was determined as 2.33%.

For `CCNS(=O)(=O)C1CCN(C(=O)c2ccc(F)cc2)C1` (centres undefined), the cytotoxicity at 70.5 h was 1.22%.

Turning to `CCNS(=O)(=O)C1CCN(C(=O)c2c(F)cc(F)cc2F)C1` (centres undefined), the cytotoxicity at 70.5 h was -2.04%.

For `CN(Cc1ccncc1)Cc1nccn1Cc1ccccc1`, the cytotoxicity at 70.5 h was -5.12%.

On to `CCC(C)(NCC(=O)NC(C)C)c1nccs1` (centres undefined), for which the cytotoxicity at 70.5 h is -3.03%.

With `CC(=O)N1CCN(CC(=O)NCCCN(C)c2ccccc2)CC1`, the cytotoxicity at 70.5 h was -7.53%.

`Cc1cnn(CC2CCCN2c2ccc(C#N)cn2)c1` (centres undefined): the cytotoxicity at 70.5 h is 6.54%.

As for `COc1ccc(CNC(=O)N2CCOCC2C2CC2)cc1C` (centres undefined), the cytotoxicity at 70.5 h is -3.69%.

Turning to `CCc1nsc(N2CCN(CC(=O)Nc3c(C)n[nH]c3C)CC2)n1`, the cytotoxicity at 70.5 h is 2.39%.

`COCCCN1CCC(NC2CSCCc3ccccc32)CC1` (centres undefined): the cytotoxicity at 70.5 h came to 2.22%.

Regarding `CCN(CC(F)(F)F)C(=O)C1CCCN(Cc2ccccn2)C1` (centres undefined), the cytotoxicity at 70.5 h is -3.97%.

Take `CCC1CN(Cc2c(O)ccc3oc4c(c23)CCCC4)CCO1` (centres undefined): the cytotoxicity at 70.5 h amounted to 8.92%.

`O=C(CCNc1ncccn1)NCc1cccc(OC(F)F)c1`: the cytotoxicity at 70.5 h was -11.7%.

`CNS(=O)(=O)CC(=O)N1CC2(CCCC2)c2c(F)cccc21`: the cytotoxicity at 70.5 h stood at 0.789%.

Turning to `COc1ccc2cccc(CC(=O)NCc3n[nH]c(=O)[nH]3)c2c1`, the cytotoxicity at 70.5 h is -1.52%.

Take `COc1ccc2cccc(CC(=O)NCc3nccc(N)n3)c2c1`: the cytotoxicity at 70.5 h is -2.39%.

Take `CCOCc1nnc(NCc2ccsc2)o1`: the cytotoxicity at 70.5 h is -3.37%.

Consider `c1cc(CNc2nnc(Cc3ccsc3)o2)cs1`, for which the cytotoxicity at 70.5 h was -8.44%.

For the molecule `c1coc(CNc2nnc(Cc3ccsc3)o2)c1`, the cytotoxicity at 70.5 h is -3.55%.

In the case of `CC(C)Cc1nnc(NCc2ccsc2)o1`, the cytotoxicity at 70.5 h was -5.09%.

As to `CCN(CC(=O)N(C)C)C(=O)C(C)(C)c1ccc2c(c1)OCCO2`, the cytotoxicity at 70.5 h was -8.05%.

Take `COc1ccccc1NCC(=O)NCc1ccc(-c2ccn[nH]2)cc1`: the cytotoxicity at 70.5 h was -4.94%.

`CCn1ncc2c1CCCC2NCc1cscn1` (centres undefined): the cytotoxicity at 70.5 h is -5.01%.

Turning to `Cc1nc(CN2CCN(C(C)C(=O)NC3CCCC3)CC2)cs1` (centres undefined), the cytotoxicity at 70.5 h was -5.82%.

In the case of `Cc1ccc(C(=O)NC(CN2CCCC2)c2ccccc2)c(=O)[nH]1` (centres undefined), the cytotoxicity at 70.5 h is -3.04%.

As to `COc1ccc(F)cc1CSCC(=O)N(C)CCC#N`, the cytotoxicity at 70.5 h turned out to be 0.901%.

Consider `COc1cc(F)ccc1N(C)Cc1cccnc1`, for which the cytotoxicity at 70.5 h amounted to 15.7%.

With `CCOCc1ccccc1NC(=O)NCC(C)(O)c1cccs1` (centres undefined), the cytotoxicity at 70.5 h is -1.02%.

For `CCC(C)(N)c1nc(C(C)C)cc(=O)[nH]1` (centres undefined), the cytotoxicity at 70.5 h is -4.71%.

For the molecule `CCn1ccnc1CN1CCNCC1C` (centres undefined), the cytotoxicity at 70.5 h was -5.16%.
